According to US20190350995A1, “THERAPEUTIC COMPOSITION DERIVED FROM ANTHOSTEMA SENEGALENSE” (LABORATOIRE MICHEL IDERNE, priority 2016, published 2019):
In brackets after ≈: the same amount, converted by molar mass. Read-outs that look alike come from different tables or passages of the source.

Tests used:
[1] = tested on: HIV type 2 (strain ROD); test: In vitro anti-viral replication test (method of E De Clercq, MTT) against HIV type 2 (strain ROD) in infected MT-4 cells; assay type: cell-based, HIV-2; conditions: for HIV-2 SI: selectivity index, ratio CC50/EC50; for biological (inhibitory) activity against HIV-2, in words: in vitro, "significant" = CC50≥45 μg/mL and selectivity index ≥50
Procedure: (§1) The anti-viral replication efficiency of the molecules of the chemical composition of the invention was tested in vitro against the replication of the viruses HIV type 1 (strain MO and HIV type 2 (strain ROD) in the infected MT-4 cells.
(§2) More specifically, the antiretroviral activity of the molecules was tested by effectively carrying out the method of E De Clercq in a microplate.
(§3) This method consists of producing a cell culture of MT-4 in a microplate, containing as cell culture medium: the medium developed by the Roswell Park Memorial Institute (referred to as “RPMI 1640”), comprising of foetal calf serum, glutamine, sodium bicarbonate, and gentamicin as bacterial inhibitor.
The molecules of the chemical composition of the invention are added at different concentrations into the cell growth medium. […] The MT4 cells placed in the presence of the molecules to be tested are referred to as “treated cells”.
(§4) In each cell growth well, a defined amount of HIV-1 or HIV-2 is added in order to obtain the same concentration of virus in each well.
(§5) The cells placed in the presence of the HIV are referred to as “infected cells”.
(§6) Five days after the start of the process of infecting the MT4 cells with HIV-1 or HIV-2 in the presence of the molecules to be tested at different concentrations, a count is taken of the number of living cells by means of an MTT (tetrazolium salt) colorimetric assay by measuring the optical density at 540 nm.
(§7) As negative controls, use is made of cells without HIV 1 or HIV 2, referred to as “non-infected cells”, as well as of cells without the molecules to be tested referred to as “untreated cells”.
(§8) Thus, succinctly stated, the method of E De Clercq provides the means to obtain a density measurement at 540 nm for: • the cells infected with HIV-1 or HIV-2, treated with the molecules of the composition of the invention; • the cells not infected with HIV, treated with the molecules of the composition of the invention; • the cells infected with HIV-1 or HIV-2, not treated with the molecules of the composition of the invention; • the cells not infected with HIV, not treated with the molecules of the composition of the invention.
(§9) In particular, the effectiveness of the molecules of the composition of the invention was tested: • by measurement and calculation of the (median) 50% inhibitory concentration (IC50); • by measurement and calculation of the 50% cytotoxic concentration (CC50); • by measurement and calculation of the 50% effective concentration dose (EC50); and • by measurement and calculation of the selectivity index (SI), of the fractions containing the said molecules in the presence of the two strains of HIV.
(§10) The IC50 is the concentration of the molecule that makes it possible to decrease by 50% the viral proliferation of the negative control in vitro for a given time period, that is to say of the HIV without substance, only in its growth culture medium.
(§11) The EC50 is calculated using the following formula:
[(ODT)HIV^+]−[(ODC)HIV^+]/[(ODT)HIV^−]−[(ODC)HIV^−]×100
Where: • (ODT)HIV^+ represents the optical density measurement at 540 nm, 5 days after infection, for the cells infected with HIV and treated with the composition of the invention, that is to say in the presence of molecules of the composition of the invention; • (ODC) HIV^+ represents the optical density measurement at 540 nm, 5 days after infection, for the cells infected with HIV in the absence of the molecules of the composition of the invention; • (ODT) HIV^− represents the optical density measurement at 540 nm, 5 days after infection, for the cells not infected with HIV and treated with the composition of the invention, that is to say in the presence of the molecules of the composition of the invention; i(ODC) HIV^− represents the optical density measurement at 540 nm, 5 days after infection, for the cells not infected with HIV in the absence of the molecules of the composition of the invention.
The selectivity index represents the ratio CC50/EC50. […]

[2] = tested on: MT-4 cells; test: 50% cytotoxic concentration in MT-4 cells (MTT); assay type: cell-based; conditions: for HIV-1 CC 50: HIV-1, average over duplicates; for HIV-2 CC 50: HIV-2, average over duplicates; for CC50: Homo sapiens
Procedure: as §3
(§12) The molecules of the chemical composition of the invention are added at different concentrations into the cell growth medium. Each concentration of molecules to be tested is prepared in triplicate. The MT4 cells placed in the presence of the molecules to be tested are referred to as “treated cells”.
as §6, §7, §8, §9
The CC50 is the concentration of active molecules that makes it possible to decrease by 50% the […]. In other words, it is the concentration of active molecules that makes it possible to decrease by 50% the viability of cells.

[3] = tested on: HIV type 1; test: In vitro anti-viral replication test (method of E De Clercq, MTT) against HIV type 1 in infected MT-4 cells; assay type: cell-based, HIV-1; conditions: for HIV-1 SI: selectivity index, ratio CC50/EC50; for biological (inhibitory) activity against HIV-1, in words: in vitro, "significant" = CC50≥45 μg/mL and selectivity index ≥50
Procedure: as §1, §2, §3, §12, §4, §5, §6, §7, §8, §9, §10, §11
[(ODT)HIV^+]−[(ODC)HIV^+]/[(ODT)HIV^−]−[(ODC)HIV^−]×100 […]

[4] = tested on: HIV-1 or HIV-2; test: In vitro anti-HIV test of fractions and isolated compounds, virus type not separated in the statement; assay type: cell-based
Procedure: The anti-HIV activity was tested in vitro according to the method of Clerq E on each of the abovementioned fractions AsC4.1, AsC4.2, AsC4.3, AsC4.4, AsC4.5, AsC4.6, AsC4.7 and AsC4.8.
More than ten different compounds were obtained for all of the different mobile phases used. Each compound was individually tested against HIV-1 and HIV-2 according to the in vitro method mentioned above.

[5] = infected MT-4 cells, 5 days after infection, MTT, average over duplicates
[6] = "significant" = CC50≥45 μg/mL and selectivity index ≥50

## O=c1[nH]cnc2c1ncn2[C@H]1CC[C@@H](CO)O1 [Dideoxyinosine, dideoxyinosine]
[1]; [5]
  HIV-2 IC 50: 3.78 µg/mL
[1]
  HIV-2 SI: >50
[2]
  HIV-1 CC 50: 0.68 µg/mL
  HIV-2 CC 50: 1.22 µg/mL
[3]; [5]
  HIV-1 IC 50: 2.09 µg/mL
[3]
  HIV-1 SI: >50

## Cc1ccnc2c1NC(=O)c1cccnc1N2C1CC1 [Nevirapine, nevirapine]
[1]; Human immunodeficiency virus 2, MT4, 120 h, infected MT-4 cells, 5 days after infection, MTT, average over duplicates, read-out: HIV-2 IC 50
  IC50: > 4 µg/mL
[1]
  HIV-2 SI: <1
[2]; MT4, HIV-1, average over duplicates, read-out: HIV-1 CC 50
  CC50: 0.011 µg/mL (≈ 0.0413 µM)
[2]; MT4, HIV-2, average over duplicates, read-out: HIV-2 CC 50
  CC50: > 4 µg/mL
[3]; Human immunodeficiency virus 1, MT4, 120 h, infected MT-4 cells, 5 days after infection, MTT, average over duplicates, read-out: HIV-1 IC 50
  IC50: 0.05 µg/mL (≈ 0.188 µM)
[3]
  HIV-1 SI: >4

## CC(=O)OC1CCC2(C)C3CCC4C(=CC(=O)C5C(C)(C)CCCC45C)C3(C)CCC2C1(C)C (centres unmarked) [molecule A]
[1]
  biological (inhibitory) activity against HIV-2, in words: at least two times greater
[3]
  biological (inhibitory) activity against HIV-1, in words: at least two times greater
[4]; [6]
  biological activity against HIV (HIV-1 or HIV-2), in words: significant biological activity
[4]; "significant" = CC50≥45 μg/mL and selectivity index ≥50, listed as AsC4.5.1.1
  biological activity against HIV (HIV-1 or HIV-2), in words: “significant” biological activity

## Nc1ccn([C@H]2CC[C@@H](CO)O2)c(=O)n1 [Dideoxycitidine, dideoxycitidine]
[1]; [5]
  HIV-2 IC 50: 0.19 µg/mL
[1]
  HIV-2 SI: >20
[2]
  HIV-1 CC 50: 0.12 µg/mL
  HIV-2 CC 50: 0.11 µg/mL
[3]; [5]
  HIV-1 IC 50: 0.16 µg/mL
[3]
  HIV-1 SI: >20

## CC1(C)CC[C@]2(C(=O)O)CC=C3[C@]4(C)CCC5C(C)(C)[C@@H](OC(=O)c6ccccc6)[C@H](O)C[C@]5(C)C4CC[C@@]3(C)C2C1 (some centres unmarked) [molecule B]
[1]
  biological (inhibitory) activity against HIV-2, in words: at least two times greater
[3]
  biological (inhibitory) activity against HIV-1, in words: at least two times greater
[4]; [6]
  biological activity against HIV (HIV-1 or HIV-2), in words: significant biological activity
[4]; "significant" = CC50≥45 μg/mL and selectivity index ≥50, listed as AsC4.5.7.2
  biological activity against HIV (HIV-1 or HIV-2), in words: “significant” biological activity
